Read-outs that look alike come from different tables or passages of the source.
How the values were obtained:
LDL [1] = assay: Antioxidant activity: latency period of copper-induced LDL oxidation (TBARS method); format: biochemical, human; settings: 10 μM; LDL oxidized with 5 μM cupric sulfate at 37° C.
Excerpt: The determination of the melting point has been carried out by means of a capillary melting point apparatus Electrothermal, without any correction. The I.R. spectrum has been obtained by means of a Perkin-Elmer rood. 963/G spectrophotometer generally, when not otherwise specified, preparing the specimen in potassium bromide and recording the spectrum between […]. The ^1 H-NMR spectrum has been recorded at room temperature with a 200 MHz Varian Gemini spectrometer, in the solvents cited, by using tetramethylsilane as internal standard; the resonances of the signals have been expressed in p.p.m.. The ^13 C-NMR spectrum has been carried out at 50.3 MHz with a Varian Gemini 200 spectrometer by using tetramethylsilane as internal standard and as solvents those described in the experimental section. The mass spectrum has been recorded by using a VG 7070E mass spectrometer, at a 70 eV ionization voltage and with a 6 Kvolt acceleration voltage. The chromatographies on silica gel have been carried out by using 60 F254 silica gel ([…]--Merck) with the eluents cited in the examples, according to the method described by Clark Still W. et al. in J. Org. Chem., 43, 2923, (1978). The pharmacological activity of the lactones of formula I object of the present invention has been determined by means of a series of in vitro tests considered predictive of the antioxidant and hypolipidaemic properties. The antioxidant activity has been evaluated through the capability of some lactones of formula I to prevent and/or delay the oxidative modification of the lipoproteins (LDL), caused by a chemical method by incubating native LDL with cupric ions, according to the method described by Steinbrecher U. P. in J. Biol. Chem., 262, 3603-3608, (1987). The evaluation of the oxidation degree of the LDL through the monitoring of the concentration of aldehydes derived from the degradation of the lipidic peroxides and the observation of the modifications of the B-100 apolipoprotein represent the used experimental approach. The antioxidant activity of the lactones has been expressed in terms of duration of the latency period that represents a parameter of the resistance to the oxidation of the LDL. The LDL have been isolated from the human plasma obtained from blood collected, in the presence of EDTA, from healty volunteers fasting from 8 hours according to the method described by Havel H. in J. Clin. Invest., 34, 1345-1353, (1955). The solution, dialyzed in Visking-Serva dialysis tubes at 4° C. for 72 hours in phosphate buffer (PBS) added with EDTA (0.24 mM), has been filtered through a membrane with 0.45μ porosity (Millex HV Filters) and the proteic concentration has been determined according to the method described by Lowry O. et al. in J. Biol. Chem., 193, 265-275, (1951). The solution has been diluted with PBS-EDTA at a concentration of 500 μg protein/ml and the obtained LDL have been incubated at 42° C. for 45 minutes in presence of the lactones solubilized in ethanol (1.7 μl/ml LDL). At the end of the incubation the solutions have been placed on ice for 45 minutes and dialyzed at 4° C. for 36 hours in PBS. The oxidation of the LDL has been carried out with 5 μM cupric sulfate at 37° C. and stopped at the experimental times by cooling at 4° C. and adding 0.24 mM of EDTA. The solutions of LDL have been kept at 4° C. and sheltered from light during the experimental procedure. The oxidation degree of the LDL has been checked by spectrophotometric determination (λ=535 nm--Perkin Elmer spectrophotometer mod. Lambda 1) of the content of the aldehydes of degradation reactive to the thiobarbituric acid using as standard malondialdehyde (MDA), according to the TBARS method, described in Methods in Enzymology, vol. 52, (1978).
FIGS. 1A-1C show the results of spectrophotometric readings expressed as ng of MDA/mg LDL protein. […]

HepG2 = assay: Incorporation of 14C-acetate in the lipidic classes in HepG2 cells (hypolipidaemic activity); format: cell-based, human; settings: for Incorporation of 14C-acetate: Cholesterol / Incorporation of 14C-acetate: Esters of Cholesterol / Incorporation of 14C-acetate: Fatty acids / Incorporation of 14C-acetate: Phospholipids / Incorporation of 14C-acetate: Triglycerides: per culture plate; for inhibition at 1 µM / inhibition at 10 µM: Homo sapiens, HepG2
Experimental: The hypolipidaemic activity of some lactones of general formula I has been evaluated in vitro by testing their influence on the synthesis of the cell lipids like cholesterol, fatty acids, triglycerides, phospholipids and esters of the cholesterol, described by Barnhard J. W. in Amer. J. Cardiol., 62, 52B-56B, (1988).
The synthesis of the lipids has been studied by incubating cells coming from a human hepatocarcinoma (HepG2-American Type Culture Collection) in presence of ^14 C-acetate (Amersham) and by measuring the incorporation of the radioactive precursor in the main lipidic classes by means of chromatographic separation on silica gel (Merck F254), according to the method described by Skipski V. P. et al. in Biochem. Biophys. Acta, 106, 386-396, (1965) and by means of scintillographic dosage with β-counter Beckman scintillator, according to the method reported by Gherardi E. and Calandra S. in Lipids, 15, 108-112, (1980).
The data reported in tables 4 and 5 refer to the incorporation of ^14 C-acetate in the various lipidic classes, expressed as radioactivity in count per minute (cpm) for culture plate, for some lactones, in comparison with the probucol and the gemfibrozil, used as positive controls and with the solvent ethanol, used as negative control.
The percents in brackets express the lowering of the ^14 C-acetate in the various lipidic classes referred to the control, i.e. to the physiological solution. […] The confluence cells have been exposed to the products tested for 24 hours; at the end of the incubation the monolayer has been solubilized and the optical density of the lysate at λ260 nm has been measured. The value of the absorbance is direct function of the amount of the macromolecules present and therefore indirectly of the number of the cells.

LDL [2] = settings: in vitro, LDL incubated with antioxidizer; cited from earlier work
[3] = system: Watanabe rabbits, suffering from familial hypercholesterolaemia; settings: cited from earlier work

CC(C)(Sc1cc(C(C)(C)C)c(O)c(C(C)(C)C)c1)Sc1cc(C(C)(C)C)c(O)c(C(C)(C)C)c1 [Probucol, reference compound]
Latency period (LDL [1]): 82 min
Incorporation of 14C-acetate: Cholesterol (HepG2; 1 μM): 14360 cpm
Incorporation of 14C-acetate: Esters of Cholesterol (HepG2; 1 μM): 1887 cpm
Incorporation of 14C-acetate: Fatty acids (HepG2; 1 μM): 429 cpm
Incorporation of 14C-acetate: Phospholipids (HepG2; 1 μM): 173426 cpm
Incorporation of 14C-acetate: Triglycerides (HepG2; 1 μM): 100202 cpm
Incorporation of 14C-acetate: Cholesterol (HepG2; 10 μM): 11389 cpm
Incorporation of 14C-acetate: Esters of Cholesterol (HepG2; 10 μM): 2635 cpm
Incorporation of 14C-acetate: Fatty acids (HepG2; 10 μM): 394 cpm
Incorporation of 14C-acetate: Phospholipids (HepG2; 10 μM): 173329 cpm
Incorporation of 14C-acetate: Triglycerides (HepG2; 10 μM): 105097 cpm
inhibition at 1 µM (HepG2; 1 μM, read-out: Incorporation of 14C-acetate: Cholesterol, percent referred to physiological solution): 55%
inhibition at 1 µM (HepG2; 1 μM, read-out: Incorporation of 14C-acetate: Esters of Cholesterol, percent referred to physiological solution): 54%
inhibition at 1 µM (HepG2; 1 μM, read-out: Incorporation of 14C-acetate: Fatty acids, percent referred to physiological solution): 36%
inhibition at 1 µM (HepG2; 1 μM, read-out: Incorporation of 14C-acetate: Phospholipids, percent referred to physiological solution): 31%
inhibition at 1 µM (HepG2; 1 μM, read-out: Incorporation of 14C-acetate: Triglycerides, percent referred to physiological solution): 8%
inhibition at 10 µM (HepG2; 10 μM, read-out: Incorporation of 14C-acetate: Cholesterol, percent referred to physiological solution): 64%
inhibition at 10 µM (HepG2; 10 μM, read-out: Incorporation of 14C-acetate: Esters of Cholesterol, percent referred to physiological solution): 35%
inhibition at 10 µM (HepG2; 10 μM, read-out: Incorporation of 14C-acetate: Fatty acids, percent referred to physiological solution): 42%
inhibition at 10 µM (HepG2; 10 μM, read-out: Incorporation of 14C-acetate: Phospholipids, percent referred to physiological solution): 31%
inhibition at 10 µM (HepG2; 10 μM, read-out: Incorporation of 14C-acetate: Triglycerides, percent referred to physiological solution): 3%
activity as regards the synthesis of the esters of the cholesterol (HepG2; summary of Table 4): 35-45%
atherogenic potentialities of the LDL (LDL [2]): remarkably lowered
LDL plasma levels [3]: does not substantially modify the LDL plasma levels
atheromatous lesions [3]: lowers the atheromatous lesions
